Test: pKa value was determined
Type: physicochemical

A pKa of 6.8 was found for `COC(=O)C(Cc1ccc(O)cc1)NC(=O)CN(CCN(CC(=O)O)CC(=O)NC(Cc1ccc(O)cc1)C(=O)OC)CC(=O)O` (stereo unspecified) in this work.
